According to paper PMC6137088, “The Role of Outer Membrane Proteins and Lipopolysaccharides for the Sensitivity of Escherichia coli to Antimicrobial Peptides” (Frontiers in Microbiology, 2018):
Counter-ions that a name gives are not always drawn. Where a SMILES comes first, the peptide text is derived from it. Bridges are numbered along the chain shown (N, C = ends). Where no end group is shown, it is not given here. [ ]: non-standard residue; d: D form. The star is where a group is joined. X1 = CC[C@H](C)CCCCC(=O)*; Dab = NCC[C@H](N)C(=O)O

Tests used:
E. coli ATCC25922 = assay type: cell-based, Escherichia coli; details: triplicates; for Antimicrobial activity: MIC: Table 6, E. coli ATCC25922 wild-type
Excerpt: (§1) The E. coli strains 470, F632, F653 and F2513 were kindly provided by Prof. H. Brade and Prof. S. Muller-Loennies, Research Center Borstel, Leipniz-Center for Medicine and Biosciences, Germany. E. coli BW25113 (CGSC#:7636), a derivative of F^−, λ^− E. coli K12 strain BD792 is the wild-type strain which was used in the generation of the KEIO collection and ordered from the Coli Genetic Stock Centre (CGSC, Yale University). E. coli JW3596, E. coli JW3024, E. coli JW3595, E. coli JW3606, E. coli JW0212, E. coli JW1667, E. coli JW0554, E. coli JW3605 and E. coli JW3600 are isogenic mutants of waaC, waaE, waaF, waaG, gmhA (lpcA), lpp, ompT, waaP, or waaY derived from the parental strain E. coli BW25113 and were ordered from the KEIO collection (Baba et al., [2006]). E. coli ATCC25922 is a clinical isolate, serotype O6, often used as control strain in antimicrobial susceptibility testing was ordered from the ATCC strain collection. All strains were grown in Mueller-Hinton-II medium and incubation took place aerobically at 37°C for 18–20 h.
(§2) The minimum inhibitory concentrations (MICs) of the AMPs were measured in 96-well microtiter plates according the Clinical and Laboratory Standards Institute [CLSI, formerly National Committee for Clinical Laboratory Standards (NCCLS)] (Wikler et al., [2009]). Liquid Mueller-Hinton-II medium containing increasing concentrations of AMPs is inoculated with a defined number of cells (~10^5 CFUs/ml) in 96-well microtiter plates (polypropylene). Each microtiter plate includes a positive growth control and a negative control (sterile control). After incubation, the minimal inhibitory concentration (MIC) is determined by the lowest concentration showing no visible growth. All plates were incubated for 16–20 h.

[1] = test system: E. coli BW25113 ompT::kan; assay type: cell-based, Escherichia coli; details: for MIC: Table 3, BW25113 ompT::kan, Mueller-Hinton-II, 16–20 h, duplicates (*) or triplicates
Excerpt: as §1, §2

[2] = test system: E. coli BW25113 waaC::kan; assay type: cell-based, Escherichia coli; details: for MIC: Table 3, BW25113 waaC::kan, Mueller-Hinton-II, 16–20 h, duplicates (*) or triplicates
Excerpt: as §1, §2

[3] = test system: E. coli BW25113 waaE::kan; assay type: cell-based, Escherichia coli; details: for MIC: Table 3, BW25113 waaE::kan, Mueller-Hinton-II, 16–20 h, duplicates (*) or triplicates
Excerpt: as §1, §2

[4] = test system: E. coli BW25113 waaF::kan; assay type: cell-based, Escherichia coli; details: for MIC: Table 3, BW25113 waaF::kan, Mueller-Hinton-II, 16–20 h, duplicates (*) or triplicates
Excerpt: as §1, §2

[5] = test system: E. coli BW25113 waaG::kan; assay type: cell-based, Escherichia coli; details: for MIC: Table 3, BW25113 waaG::kan, Mueller-Hinton-II, 16–20 h, duplicates (*) or triplicates
Excerpt: as §1, §2

[6] = test system: E. coli BW25113 waaP::kan; assay type: cell-based, Escherichia coli; details: for MIC: Table 3, BW25113 waaP::kan, Mueller-Hinton-II, 16–20 h, duplicates (*) or triplicates
Excerpt: as §1, §2

[7] = test system: E. coli BW25113 waaY::kan; assay type: cell-based, Escherichia coli; details: Table 3, Mueller-Hinton-II, 16–20 h, duplicates (*) or triplicates
Excerpt: as §1, §2

E. coli BW25113 = assay type: cell-based, Escherichia coli; details: for MIC: Table 3, E. coli BW25113 wild type, Mueller-Hinton-II, ~10^5 CFUs/ml, 16–20 h, duplicates (*) or triplicates
Excerpt: as §1, §2

E. coli F2513 (R4) = assay type: cell-based, Escherichia coli; details: Table 4; E. coli F2513 (R4 prototype, rough LPS); triplicates
Excerpt: as §1, §2

E. coli F470 (R1) = assay type: cell-based, Escherichia coli; details: Table 4; E. coli F470 (R1 prototype, rough LPS); triplicates
Excerpt: as §1, §2

E. coli F632 (R2) = assay type: cell-based, Escherichia coli; details: Table 4; E. coli F632 (R2 prototype, rough LPS); triplicates
Excerpt: as §1, §2

E. coli F653 (R3) = assay type: cell-based, Escherichia coli; details: Table 4; E. coli F653 (R3 prototype, rough LPS); triplicates
Excerpt: as §1, §2

E. coli ATCC25922 ΔwaaC = assay type: cell-based, Escherichia coli; details: Table 6, triplicates
Excerpt: as §1, §2

E. coli ATCC25922 ΔwaaE = assay type: cell-based, Escherichia coli; details: Table 6, triplicates
Excerpt: as §1, §2

E. coli ATCC25922 ΔwaaF = assay type: cell-based, Escherichia coli; details: Table 6, triplicates
Excerpt: as §1, §2

E. coli ATCC25922 ΔwaaG = assay type: cell-based, Escherichia coli; details: Table 6, triplicates
Excerpt: as §1, §2

S. typhimurium LT2 = test: MIC testing (CLSI broth microdilution); assay type: cell-based; details: Table 6, triplicates
Description: as §2

Y. ruckeri 392/2003 = test: MIC testing (CLSI broth microdilution); assay type: cell-based; details: Table 6, triplicates
Description: as §2

[8] = test system: E. coli ATCC25922 LPS mutants (ΔwaaC, ΔwaaE, ΔwaaF, ΔwaaG); assay type: cell-based, Escherichia coli; details: E. coli ATCC25922 background (text prints ATCC29522); summary of Table 6
Excerpt: as §1, with “[…],” for “E. coli JW3605 and E. coli JW3600 are isogenic mutants of waaC, waaE, waaF, waaG,”, “or waaY derived from the parental strain E. coli BW25113 and were ordered from the” left out
as §2

[9] = test system: E. coli BW25113 gmhA::kan; assay type: cell-based, Escherichia coli; details: for MIC: Table 3, BW25113 gmhA::kan, Mueller-Hinton-II, 16–20 h, duplicates (*) or triplicates
Excerpt: as §1, §2

E. coli BW25113 lpp::kan = assay type: cell-based, Escherichia coli; details: for MIC: Table 3, BW25113 lpp::kan, Mueller-Hinton-II, 16–20 h, duplicates (*) or triplicates
Excerpt: as §1, §2

Molecule | MIC [2] | MIC [3] | MIC [4] | MIC [5] | MIC [6] | MIC [7] | MIC (E. coli BW25113) | Antimicrobial activity: MIC (E. coli ATCC25922 ΔwaaC) | Antimicrobial activity: MIC (E. coli ATCC25922 ΔwaaE) | Antimicrobial activity: MIC (E. coli ATCC25922 ΔwaaF) | Antimicrobial activity: MIC (E. coli ATCC25922 ΔwaaG) | Antimicrobial activity: MIC (E. coli ATCC25922) | Antimicrobial activity: MIC (S. typhimurium LT2) | Antimicrobial activity: MIC (Y. ruckeri 392/2003) | MIC / antimicrobial activity in LPS mutants harboring a deletion in waaC, waaE, waaF, or waaG [8] | further results
SWLSKTAKKLENSAKKRISEGIAIAIQGGPR [Cecropin P1] | 8 µg/mL | 8 µg/mL | 4 µg/mL | 16 µg/mL | 16 to 32 µg/mL | 32 µg/mL | 16 to 32 µg/mL |  |  |  |  |  |  |  |  | Antimicrobial activity (MIC) (E. coli ATCC25922; Table 4, E. coli ATCC25922 (smooth LPS)): 32 µg/mL; MIC [1]: 16 ^* μg/ml; Antimicrobial activity (MIC) (E. coli F2513 (R4)): 16 to 32 µg/mL; Antimicrobial activity (MIC) (E. coli F470 (R1)): 32 µg/mL; Antimicrobial activity (MIC) (E. coli F632 (R2)): 32 µg/mL; Antimicrobial activity (MIC) (E. coli F653 (R3)): 32 µg/mL
GLRKRLRKFRNKIKEKLKKEGQKIQGLLPKLAPRTDY [I20E] |  |  |  |  |  |  |  | 4 µg/mL | 4 µg/mL | 4 µg/mL | 8 µg/mL | ≥64 µg/mL | 8 µg/mL | 32 µg/mL | 4 to 8 µg/mL | 
GLRKKFRKTRKRIQKLGRKIGKTGRKVWKAWREYGQIPYPCRI [Cap11] | 8 µg/mL | 8 µg/mL | 8 µg/mL | 8 µg/mL | 8 to 16 µg/mL | 8 to 16 µg/mL | 8 µg/mL |  |  |  |  |  |  |  |  | MIC [9]: 8 ^* μg/ml; MIC (E. coli BW25113 lpp::kan): 8 ^* μg/ml; Antimicrobial activity (MIC) (E. coli BW25113; Table 4, E. coli BW25113 (K12 core type), triplicates): 8 µg/mL; Antimicrobial activity (MIC) (E. coli F2513 (R4)): 4 to 8 µg/mL; Antimicrobial activity (MIC) (E. coli F470 (R1)): 16 µg/mL; Antimicrobial activity (MIC) (E. coli F632 (R2)): 8 µg/mL; Antimicrobial activity (MIC) (E. coli F653 (R3)): 16 µg/mL
GLRKRLRKFRNKIKEKKKKIGQKIQGLLPKLAPRTDY [L17K] |  |  |  |  |  |  |  | 8 µg/mL | 8 µg/mL | 8 µg/mL | 8 µg/mL | ≥64 µg/mL | 16 µg/mL | ≥64 µg/mL | 4 to 8 µg/mL | 
GLRKRLRKFRNKIKEKLKKIGQKIQGPLPKLAPRTDY [L27P] |  |  |  |  |  |  |  | 8 µg/mL | 4 µg/mL | 4 µg/mL | 4 µg/mL | ≥64 µg/mL | 8 µg/mL | 32 µg/mL | 4 to 8 µg/mL | 
CC[C@H](C)CCCCC(=O)N[C@@H](CCN)C(=O)N[C@H](C(=O)N[C@@H](CCN)C(=O)N[C@H]1CCNC(=O)[C@H]([C@@H](C)O)NC(=O)[C@H](CCN)NC(=O)[C@H](CCN)NC(=O)[C@H](CC(C)C)NC(=O)[C@@H](CC(C)C)NC(=O)[C@H](CCN)NC1=O)[C@@H](C)O [Colistin, colistin sulfate] (X1-[Dab]T[Dab][Dab][Dab][dL]L[Dab][Dab]T; lactam 4-C (inferred); N-terminus assumed) | 0.063 to 0.125 µg/mL | 0.063 to 0.125 µg/mL | 0.063 µg/mL | 0.063 to 0.125 µg/mL | 0.125 to 0.25 µg/mL | 0.125 to 0.25 µg/mL | 0.125 to 0.25 µg/mL |  |  |  |  |  |  |  |  | MIC [9]: 0.063 µg/mL; increase in antimicrobial activity against BW25113 gmhA::kan compared to parental BW25113 ([9]; from MIC values of Table 3): up to 2 fold; MIC (E. coli BW25113 lpp::kan): 0.063 to 0.125 µg/mL; increase in antimicrobial susceptibility of the lpp mutant compared to the wild-type (factor) (E. coli BW25113 lpp::kan; from MIC values of Table 3): 2; MIC [1]: 0.125 to 0.25 µg/mL; increase of antimicrobial activity in the ompT mutant compared to the parental strain BW25113 (factor) ([1]; from MIC values of Table 3): unchanged; increase in antimicrobial activity against BW25113 waaC::kan compared to parental BW25113 ([2]; from MIC values of Table 3): up to 2 fold; increase in antimicrobial activity against BW25113 waaE::kan compared to parental BW25113 ([3]; from MIC values of Table 3): up to 2 fold; increase in antimicrobial activity against BW25113 waaF::kan compared to parental BW25113 ([4]; from MIC values of Table 3): up to 2 fold; increase in antimicrobial activity against BW25113 waaG::kan compared to parental BW25113 ([5]; from MIC values of Table 3): up to 2 fold; increase in antimicrobial activity in a waaP mutant background compared to the wild-type strain (times) ([6]; from MIC values of Table 3): not changed
GLRKRLRKFRNKIKEKLKKIGQKGQGLLPKLAPRTDY [I24G] |  |  |  |  |  |  |  | 8 µg/mL | 8 µg/mL | 8 µg/mL | 8 µg/mL | ≥64 µg/mL | 8 to 16 µg/mL | 32 µg/mL | 4 to 8 µg/mL | 
